Test results reported in patent US11638744B2, “Immunity enhancing agent for cancer by Allergin-1 antagonist” (ONO PHARMACEUTICAL CO., LTD., priority 2015, dated 2023).

How the values were obtained:
[1] = system: intraperitoneal macrophages (CD11b+F4/80+ cells); assay: Production of IFNβ after cGAMP stimulation of intraperitoneal macrophages; type: cell-based, mouse; conditions: macrophages derived from Alg1-KO mice versus WT; 3, 10 or 30 μM; 24 and 48 hours
Protocol: To C57BL/6N mice and Alg1-KO mice, a 3% thioglycolate medium was intraperitoneally administered at 1 mL/body. After 3 days, 5 mL of 5 mM EDTA/PBS was injected for intraperitoneal lavage and the drain was collected. After haemolysis treatment, the proportion of CD11b^+F4/80^+ cells among intraperitoneal invasive cells was calculated on a flow cytometer.
The cells were seeded in a 96-well plate so that the CD11b^+F4/80^+ cells are 2×10^5 cells/well, the culture supernatant was discarded after 1 hour, the cells were washed once with the medium and the medium containing 3, 10 or 30 μM cyclic GMP-AMP (cGAMP), respectively was added. The culture supernatant was collected after 24 and 48 hours and the amount of IFN-β in the culture supernatants was measured.

TLR7 = assay: Production of type I IFN after administration of polyuridine (serum ELISA); type: in vivo; conditions: Alg1-KO mice versus WT; 50 μg/mouse i.v. with DOTAP; 2 and 6 hours after administration
Protocol: To C57BL/6 mice (WT mice) and Alg1-KO mice, polyuridine was intravenously administered together with a liposome transfection reagent, DOTAP. The dosage was 50 μg/mouse. Serum IFNα and IFNβ were measured by ELISA at 2 and 6 hours after administration.

How did the “production of IFNβ (culture supernatant)” value [1] turn out when cyclic GMP-AMP [cGAMP] was run?
Its value is “increased compared to WT”.

How did the “production of IFNα (serum)” value (TLR7) turn out when polyuridine was run?
Its value is “increased compared to WT”.

And the “production of IFNβ (serum)” value (TLR7)?
Its value is “increased compared to WT”.
